Assay results taken from patent US12522597B2, “Methods and compositions for modulating splicing” (Skyhawk Therapeutics, Inc., priority 2019, dated 2026).
Read-outs that look alike come from different tables or passages of the source.

Legend:
[1] = test system: Huntingtin (HTT) transcripts; assay: Quantitative splicing assay (HTT), qPCR; type: cell-based; details: Homo sapiens, GM04724 (CAG 70/20) Huntington's disease patient lymphoblasts, 24 h
How it was run: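 Read-out is TaqMan qPCR on cDNA, quantifying inclusion of a cryptic exon within HTT intron 49. Cells were Huntington's patient lymphoblasts GM04724 (CAG 70/20), treated for 24 h at 0.15 nM–2.5 uM compound in 0.1% DMSO.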

[2] = test system: mHTT protein; assay: mHTT protein assay (2B7-MW1, Mesoscale Discovery); type: cell-based, human; details: GM04724 (CAG 70/20) Huntington's disease patient lymphoblast cells, 48 hours, 2B7-MW1 MSD; read-out: HTT Potency - Protein EC50 mHTT (average)
How it was run: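 mHTT levels were read with the 2B7-MW1 antibody pair (N17 and polyQ epitopes) on MSD after 48 h dosing, 10 μM–0.6 nM. Cells were GM04724 HD lymphoblasts (CAG 70/20). A replica plate was read by CTG for cell viability.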

[3] = test system: MDR1-MDCK cell monolayers; assay: MDCK-MDR1 permeability assay (BBB penetration potential); type: in vitro ADME; details: dog, MDCK-MDR1, 120 min, 5 μM, pH 7.4
Method: (§1) Each determination is performed in duplicate. […] Analytical conditions are outlined below.

[4] = test system: MDR1; assay: as above; type: in vitro ADME; details: dog; for efflux ratio at 120 min, 5 μM: MDCK-MDR1, pH 7.4, MDCK-MDR1: Efflux; for Papp A→B at 120 min, 5 μM: MDCK-MDR1, pH 7.4, MDCK-MDR1: Papp A-B; for Papp B→A at 120 min, 5 μM: MDCK-MDR1, pH 7.4, MDCK-MDR1: Papp B-A
Method: as §1

[5] = qPCR HTTex49_50, read-out: HTT Potency - Splicing: E49-50 EC50 (average)
[6] = qPCR cryptic exon 49b inclusion, read-out: HTT Potency - Splicing: E49b EC50 (average)

Row | SMILES | EC50 [1, 5] [nM] | EC50 [1, 6] [nM] | EC50 [2] [nM] | MDCK-MDR1: % Recov A-B [3] [%] | MDCK-MDR1: % Recov B-A [3] [%] | efflux ratio at 120 min, 5 μM [4] | Papp A→B at 120 min, 5 μM [4] [×10⁻⁶ cm/s] | Papp B→A at 120 min, 5 μM [4] [×10⁻⁶ cm/s]
1 | Cn1cc(-c2cc(O)c(-c3ccc(O[C@H]4C[C@@H]5CCC[C@@H](N5)[C@H]4F)nn3)cc2F)cn1 (single isomer, unassigned) [82-ENT2] | 0.01 to 15 | 0.01 to 15 | 0.01 to 15 | 35 | 72 | 4 | 3.26 | 12.8
2 | Oc1cc(-c2ccn3ccnc3c2)ccc1-c1ccc(O[C@@H]2C[C@H]3CCC[C@H](N3)[C@@H]2F)nn1 (single isomer, unassigned) [83-ENT1] | 501 to 10000 | 501 to 10000 | 101 to 500 | 48 | 64 | 23 | 1.05 | 23.8
3 | Oc1cc(-c2ccn3ccnc3c2)ccc1-c1ccc(O[C@H]2C[C@@H]3CCC[C@@H](N3)[C@H]2F)nn1 (single isomer, unassigned) [83-ENT2] | 501 to 10000 | 501 to 10000 | 101 to 500 | 47 | 66 | 12 | 0.77 | 9.61
4 | Cc1cc(-c2ccc(-c3ccc(O[C@@H]4C[C@H]5CCC[C@H](N5)[C@@H]4F)nn3)c(O)c2)ccn1 (single isomer, unassigned) [88-ENT1] | 16 to 50 | 16 to 50 | 16 to 50 | 51 | 64 | 3 | 7.03 | 22.1
5 | Cc1ncc(-c2ccc(-c3ccc(O[C@@H]4C[C@H]5CCC[C@H](N5)[C@@H]4F)nn3)c(O)c2)o1 (single isomer, unassigned) [93-ENT1] | 16 to 50 | 16 to 50 | 16 to 50 | 75 | 78 | 4 | 8.72 | 38.7
6 | Cc1ncc(-c2ccc(-c3ccc(O[C@@H]4C[C@H]5CCC[C@H](N5)[C@@H]4F)nn3)c(O)c2)s1 (single isomer, unassigned) [96-ENT1] | 16 to 50 | 16 to 50 | 16 to 50 | 39 | 72 | 2 | 7.37 | 15.2
7 | Cc1ncc(-c2ccc(-c3ccc(O[C@H]4C[C@@H]5CCC[C@@H](N5)[C@H]4F)nn3)c(O)c2)s1 (single isomer, unassigned) [96-ENT2] | 16 to 50 | 16 to 50 | 16 to 50 | 35 | 67 | 2 | 6.73 | 11.6
8 | Cn1cc(-c2ccc(-c3ccc(O[C@@H]4C[C@H]5CCC[C@H](N5)[C@@H]4F)nn3)c(O)c2)oc1=O (single isomer, unassigned) [97-ENT1] | 16 to 50 | 16 to 50 | 0.01 to 15 | 83 | 78 | 14 | 3.67 | 50.4
9 | Cn1cc(-c2ccc(-c3ccc(O[C@H]4C[C@@H]5CCC[C@@H](N5)[C@H]4F)nn3)c(O)c2)oc1=O (single isomer, unassigned) [97-ENT2] | 16 to 50 | 16 to 50 | 0.01 to 15 | 74 | 82 | 10 | 3.11 | 32
10 | Oc1cc(-n2ccc(F)n2)ccc1-c1ccc(O[C@@H]2C[C@H]3CCC[C@H](N3)[C@@H]2F)nn1 (single isomer, unassigned) [115-ENT1] | 0.01 to 15 | 0.01 to 15 | 16 to 50 | 44 | 70 | 3 | 7.15 | 20.3
